Data reported in patent publication US20120213720A1, “Prodrug composition for skin with twin protecting groups bound by disubstituted benzene” (priority 2011, published 2012).

Tests used:
[1] = tested on: melanocytes in the skin; conditions: cited from earlier work
[2] = tested on: skin; conditions: cited from earlier work
[3] = tested on: melanin synthesis; conditions: cited from earlier work
[4] = tested on: facial freckles and the normal facial skin; experiment: Clinical test of whitening effect of DAP-containing cream, smart skin analysis system; assay type: in vivo
Protocol: Moreover, for proving the whitening effect of the DAP-containing prescription according to the present invention, a clinical test was performed and used the detection device shown in Table 7. Six subjects joining the test received the cream preparation containing 1% or 2% DAP on facial freckles and the normal facial skin twice a day for consecutive […] (2010 Nov. 24-2010 Dec. 15), and the whitening effect was evaluated. [table] According to the foregoing clinical test, data graphs with respect to the disclosed prodrug composition as shown in FIG. 2 through FIG. 7 have been made, while the photographs showing the tested sites of several subjects are reflected in FIG. 8 through FIG.

Compound | safety concentration relative to HQ [1] | time to desired clinical effects ([2]; DA solutions with proper concentration) | effect of whitening the skin ([2]; local usage, clinical research for 8 weeks) | anti-melanin effect, times higher than that of HQ ([3]; relative to HQ) [times] | anti-melanin effect, times higher than that of normal arbutin ([3]; relative to normal arbutin) [times] | side effects (toxic to melanocytes, irritative, allergenic to the skin) ([4]; four-week clinical test, 1% or 2% DAP cream twice a day) | whitening effect on the normal skin ([4]; prescription containing 1% DAP, consecutive four weeks, left cheek) | whitening effect on the solar lentigines ([4]; prescription containing 2% DAP, consecutive four weeks, left cheek)
Oc1ccc(OC2CCCCO2)cc1 (centres unmarked) [DA, deoxy-arbutin] | four times higher | three weeks | progressive and apparent effect of whitening the skin | 10 | 350 |  |  | 
c1cc(OC2CCCCO2)ccc1OC1CCCCO1 (centres unmarked) [DAP, 1,4-bis(tetrahydro-2H-pyran-2-yloxy)benzene] |  |  |  |  |  | without side effects | up to 19% | up to 46%
